The values below come from US6290995A, “Plant drug for preventing cancer II” (priority 2000, dated 2001).

The subject of one test is c-myc RNA. Put plainly: Inhibition of oncogene c-myc RNA in ML-1 cells (northern blot). Type of test: cell-based. As to conditions: Homo sapiens, ML1, 10 ng/ml, P <0.01.
The next test deals with n-ras RNA. Put plainly: Inhibition of oncogene n-ras RNA in ML-1 cells (northern blot). It counts as cell-based. Conditions: Homo sapiens, ML1, 10 ng/ml, P <0.01.
The subject of the next test is c-myb RNA. Put plainly: Inhibition of oncogene c-myb RNA in ML-1 cells (northern blot). It counts as cell-based. As to conditions: Homo sapiens, ML1, 10 ng/ml, P <0.01.
Another test has as its system mouse epidermis. As to conditions: in words; cited from earlier work.
Test [1] has as its system advanced ovarian and breast cancer. Conditions: clinical trials, late 1980s and early 1990s; cited from earlier work.

The structures appear in SMILES notation.

Procedure for c-myb RNA: (§1) Cells were maintained in suspension culture in RPMI 1640 medium supplemented with 7.5% heat-inactivated FBS, Cells growth and viability were assayed by hemocytometer using trypan blue dye exclusion. RNA was isolated by the CsCl gradient modification. RNA pellets were washed twice by reprecipitation in ethanol and quantitated by absorbency at 260 nM. RNA analyzed by electrophoresis of 15 μg of RNA through 1.2% agarose formaldehyde gels followed by northern blot transfer to nitrocellulose.
(§2) Single-standard uniformly labeled DNA probes were prepared. Probe of c-myc was a 1.7 Kb cla-Eco RI restriction fragment containing the 3'exon region of human c-myc and probe of c-myb was 1.0 Kb myb-specific Bam HI fragment. Probes for n-ras contained DNA fragments using a modification of the PCR technique. Probes for myb, myc and n-ras were isolated by electrolution. The isolated fragments were labeled to high specific activity with [α^32 P]-dCTP (3000 ci/mmol). Prehybridization of the filter was performed. The hybridization mixer contained 50,000 cpm of probe. The probes were hybridized at 58° C. in 15 mM NaCl, 1.5 nM sodium citrate for 3 hours. After hybridization, they were exposed to XAR-5 film. Oncogene expression was quantitated by densitometer scanning of the autoradiography.
Procedure for c-myc RNA: as §1, §2
Procedure for n-ras RNA: as §1, §2

By inhibition is commonly meant the percentage by which the read-out fell short of the control. Consider `O=C(O)[C@H]1O[C@@H](Oc2cc3oc(-c4ccccc4)cc(=O)c3c(O)c2O)[C@H](O)[C@@H](O)[C@@H]1O` [BA, Baicalin], for which the inhibition at 0.01 µg/mL worked out at 29.3 ± 3.4% with c-myc RNA, 20.6 ± 3% with n-ras RNA and 24.4 ± 3% with c-myb RNA.
In the case of `CCCCCCCCCCCCCC(=O)O[C@@H]1[C@@H](C)[C@@]2(O)[C@@H](C=C(CO)C[C@]3(O)C(=O)C(C)=C[C@@H]23)[C@@H]2C(C)(C)[C@]12OC(C)=O` [TPA, tetradecanoyphorbol-13-acetate], the “effect on [3H] thymidine incorporation in mouse epidermis” value in the test with mouse epidermis is “remarkable increase”.
As for `COc1ccc2cc3[n+](cc2c1OC)CCc1cc2c(cc1-3)OCO2` [BE, Berberine], the results for the inhibition at 0.01 µg/mL in the test with c-myc RNA, in the test on n-ras RNA and in the test with c-myb RNA were 50.5 ± 6.1%, 30.2 ± 3.5% and 52 ± 5.8%, respectively.
As to `CC(=O)O[C@H]1C(=O)[C@@]2(C)[C@H]([C@H](OC(=O)c3ccccc3)[C@]3(O)C[C@H](OC(=O)[C@H](O)[C@@H](NC(=O)c4ccccc4)c4ccccc4)C(C)=C1C3(C)C)[C@]1(OC(C)=O)CO[C@@H]1C[C@@H]2O` [Taxol], the “clinical activity against advanced ovarian and breast cancer” value in test [1] is given as “impressive clinical activities”.
